Assay results as given in EP0837870B1, “SYNTHETIC MODIFICATION TO SPINOSYN COMPOUNDS” (Dow AgroSciences LLC, priority 1995, dated 1997).

Experiments:
Assay type in all cases: in vivo
[1] = system: tobacco budworm (Heliothis virescens); test: Activity against tobacco budworm (TBW), sprayed diet cups with eggs; details: for mortality at 400 µg/mL: Heliothis virescens, 144 h
Protocol: (§1) In conducting evaluations of insecticidal activity, each test compound was formulated as a 400 ppm solution, and this solution was then diluted with water to give lesser concentrations. The 400 ppm solution was prepared by combining 19.2 mL of .05% solution of Tween 20 (polyoxyethylene (20) sorbitan monolaurate) in water with a solution of 8 mg of the compound in .8 mL of acetone/EtOH (9/1).
Activity against tobacco budworm (Heliothis virescens) was evaluated as follows. A general purpose lepidoptera artificial diet was diluted to half strength with a 5% non nutritive agar. 8 mL of this diet material was dispensed into each one ounce diet cup. One hour prior to treatment 18 to 20 eggs were dispensed onto the diet surface. The cups were then sprayed with formulated material through a flat-fan nozzle. […] Treated cups were air dried prior to sealing with plastic caps. The cups were held for 6 days at room temperature. Activity was then rated based on the total number of live and dead larvae, and on the size of live larvae.

[2] = system: Phormia regina (blow fly); test: Blow fly larvae test, serum-saturated dental wick; details: 24 and 48 hours, which one is reported is not stated; for Percentage of LBF killed at 10 ppm: 10 ppm in bovine serum; for Percentage of LBF killed at 100 ppm: 100 ppm in bovine serum
Protocol: (§2) The compound to be evaluated was dissolved in 1 part acetone/1 part ethanol to provide a stock solution of the compound at a concentration of 5,000 ppm; this solution was shaken for 15 minutes on a sonicator. Portions of the stock solution were placed in 15 ml test tubes, and portions of bovine serum were added to provide the desired dilution of the test compound. A dental wick was placed in each test tube and the serum allowed to saturate the wick.
For the blow fly test, approximately 20 blow fly larvae were placed onto the top center of the saturated dental wick, and the test tube was plugged with cotton and incubated at 27°C and 70% humidity for 24 and 48 hours. Larval mortality counts were then made, and adjusted for any mortality in the vehicle control, to determine percent efficacy against blow fly.

[3] = system: Stomoxys calcitrans (stable fly); test: Adult stable fly test, serum-saturated dental wick; details: readings at 24 and 48 hours, which one is reported is not stated; for Percentage of ASF killed at 10 ppm: 10 ppm in bovine serum
Protocol: as §2
For the adult stable fly test, the saturated wick was placed on a filter paper in a petri dish, and approximately 10 chilled live, hungry stable flies were placed on the center of the dish bottom. The dish was covered and allowed to incubate at 27°C and 60% relative humidity for 48 hours. Mortality readings were made at each of 24 and 48 hours, and adjusted for any mortality in the vehicle control to determine percent efficacy against adult stable fly.

[4] = system: beet armyworm (Spodoptera exiqua); test: Activity against beet armyworm (BAW), sprayed diet cups with eggs
Protocol: as §1
Activity against beet armyworm (Spodoptera exiqua) was evaluated as follows. The test is run using concentrations of 400 ppm and 50 ppm. A general purpose lepidoptera artificial diet was diluted to half strength with a 5% non nutritive agar. 8 mL of this diet material was dispensed into one ounce diet cups. One hour prior to treatment, 35 to 40 eggs were dispensed onto the diet surface. The cups were then sprayed with formulated material through a flat-fan nozzle. Treated cups were air dried prior to sealing with plastic caps. The cups were held for 6 days at room temperature. Activity was then rated based on the total number of live and dead larvae, and on the size of live larvae.

[5] = system: two spotted spider mite (Tetranychus urticae); test: Activity against two spotted spider mite (TSSM), sprayed infested squash plants; details: RATE 400 (ppm), three days after treatment; for mortality at 400 µg/mL: Tetranychus urticae, 72 h; for % MORTALITY: 4320 min
Protocol: as §1
Activity against cotton aphid (Aphis gossypii) and two spotted spider mite (Tetranychus urticae) was evaluated as follows. Golden crookneck squash plants were grown to the expanded cotyledon stage (about 6 to 8 days). The plants were infested with cotton aphids and two spotted spider mites 16 to 24 hours before application of the test material by transfer of infested foliage cut from a stock colony. Immediately prior to spray application of the test material the transfer foliage is removed from the squash plants. The test is run using concentrations of 400 ppm and 50 ppm. The plants are sprayed with test solution using an atomizing sprayer at 17 psi. Both surfaces of the leaves are covered until runoff, and then allowed to dry. Activity of each compound was determined three days after treatment. Activity was rated as a percent based on the mites/aphids present in plants sprayed with solvent alone.

[6] = system: peanut root knot nematode (Meloidogyne arenaria); test: Activity against peanut root knot nematode, sprayed sand with cucumber seeds; details: NEMA, RATE 400 (ppm), 10 to 12 days
Protocol: as §1
Activity against peanut root knot nematode (Meloidogyne arenaria) was evaluated as follows. Five untreated cucumber seeds are placed into the bottom of a clear one ounce cup, 20 g of clean white sand is added, and the cups were sprayed while rotating on a pedestal allowing 1.0 mL of a 400 ppm solution to be deposited on the sand. To each cup was dispensed 2.5 to 3.0 mL of deionized water containing 300 to 500 nematodes. The cups were held for 10 to 12 days in an environmental growth chamber at a temperature of 76 to 85°F and ambient humidity of 50 to 60%. After 10 to 12 days the cups were evaluated by inverting the cup and observing nematode mortality and feeding damage to the cucumber plants.

[7] = RATE 64 (unit not given), 8640 min

Row | Compound | Percentage of LBF killed at 10 ppm [2] | Percentage of ASF killed at 10 ppm [3] | % MORTALITY ([1]; RATE 400 (ppm), 6 days) | other results
1 | CC[C@H]1CCC[C@H](O[C@H]2CC[C@H](N(C)C)[C@@H](C)O2)[C@@H](C)C(=O)C2=C[C@H]3[C@@H]4C[C@H](O[C@@H]5O[C@@H](C)[C@H](OC)[C@@H](OC)[C@H]5OC)C[C@H]4[C@H]4OC(=O)O[C@H]4[C@H]3[C@@H]2CC(=O)O1 [Example F3, (5S,6R)-Spinosyn A carbonate] | <50% | <50% |  | % MORTALITY [1, 7]: 24%
2 | 5,6-Dihydro Spinosyn A 17-Psa [Example F20] |  |  |  | % MORTALITY ([4]; RATE 400 (ppm), 6 days): 100%
3 | CC[C@H]1CCC[C@H](O[C@H]2CC[C@H](N(C)C)[C@@H](C)O2)[C@@H](C)C(=O)[C@H]2C[C@@H]3[C@@H](CC[C@@H]4C[C@@H](O[C@@H]5O[C@@H](C)[C@H](OC)[C@@H](OC)[C@H]5OC)C[C@H]43)[C@@H]2CC(=O)O1 [Example D1, (14S)-5,6,13,14-Tetrahydro Spinosyn A] | <50% | 100% |  | % MORTALITY ([1]; RATE 80 (unit not given), 8640 min): 90%
4 | CC[C@H]1CCC[C@H](O[C@H]2CC[C@H](N(C)C)[C@@H](C)O2)[C@@H](C)C(=O)C2=C[C@H]3[C@@H]4C[C@H](O[C@@H]5O[C@@H](C)[C@H](OC)[C@@H](OC)[C@H]5OC)C[C@H]4CC[C@H]3[C@@H]2CC(=O)O1 [Example F6, 5,6-Dihydro Spinosyn A] |  | 100% |  | % MORTALITY [1, 7]: 100%; mortality at 400 µg/mL [5]: 100%; Percentage of LBF killed at 100 ppm [2]: 100%
5 | CCC1CCCC(OC2CCC(N(C)C)C(C)O2)C(C)C(=O)C2=CC3C4CC(OC5OC(C)C(OC)C(OC)C5OC)CC4[C@H]4O[C@H]4C3C2CC(=O)O1 (stereo partly drawn) [Example F7a, (5S,6R)-5,6-Epoxy Spinosyn A] | 90% | 100% | 100% | % MORTALITY [5]: 90%
6 | CCC1CCCC(OC2CCC(N(C)C)C(C)O2)C(C)C(=O)C2=CC3C4CC(OC5OC(C)C(OC)C(OC)C5OC)CC4[C@@H]4O[C@@H]4C3C2CC(=O)O1 (stereo partly drawn) [Example F7b, (5R,6S)-Epoxy Spinosyn A] | 100% | 100% | 100% | 
7 | CC[C@H]1CCC[C@H](O)[C@@H](C)C(=O)C2=C[C@H]3[C@@H]4C[C@H](O[C@@H]5O[C@@H](C)[C@H](OC)[C@@H](OC)[C@H]5OC)C[C@H]4[C@@H](Br)[C@H](OCCO)[C@H]3[C@@H]2CC(=O)O1 [Example E1, (5R,6R)-5-(2-Hydroxyethoxy)-6-bromo Spinosyn A 17-Psa] | <50% |  |  | mortality at 400 µg/mL ([1]; RATE 400 (ppm), 6 days): 100%; mortality at 400 µg/mL [5]: 60%
8 | CC[C@H]1CCC[C@H](O[C@H]2CC[C@H](N(C)C)[C@@H](C)O2)[C@@H](C)C(=O)C2=C[C@H]3[C@@H]4C[C@H](O[C@@H]5O[C@@H](C)[C@H](OC)[C@@H](OC)[C@H]5OC)C[C@H]4[C@H](Br)[C@@H](OC(C)=O)[C@H]3[C@@H]2CC(=O)O1 [Example F4a, (5S,6S)-5-Acetoxy-6-bromo Spinosyn A] | <50% | 90% |  | mortality at 400 µg/mL ([1]; RATE 400 (ppm), 6 days): 100%
9 | CC[C@H]1CCC[C@H](O[C@H]2CC[C@H](N(C)C)[C@@H](C)O2)[C@@H](C)C(=O)C2=C[C@H]3[C@@H]4C[C@H](O[C@@H]5O[C@@H](C)[C@H](OC)[C@@H](OC)[C@H]5OC)C[C@H]4[C@@H](O)[C@@H](O)[C@H]3[C@@H]2CC(=O)O1 [Example F2, (5S,6R)-5,6-Dihydroxy-5,6-dihydro Spinosyn A] | <50% | <50% |  | mortality at 400 µg/mL ([1]; RATE 400 (ppm), 6 days): 100%
10 | CCC1CCCC(OC2CCC(N(C)C)C(C)O2)C(C)C(=O)C2=CC3C4CC(OC5OC(C)C(OC)C(OC)C5OC)CC4[C@@H](Br)[C@H](OCCO)C3C2CC(=O)O1 (stereo partly drawn) [Example F1, (5R,6R)-5-(2-Hydroxyethoxy)-6-bromo Spinosyn A] | 90% | 60% | 100% | 
11 | CCC1CCCC(O)C(C)C(=O)C2=CC3C4CC(OC5OC(C)C(OC)C(OC)C5OC)CC4C4OC4C3C2CC(=O)O1 [Example E3, (5S,6R)-5,6-Epoxy Spinosyn A 17-Psa] |  |  |  | % MORTALITY [6]: 100%
12 | CC[C@H]1CCC[C@H](O[C@H]2CC[C@H](N(C)C)[C@@H](C)O2)[C@@H](C)C(=O)C2=C[C@H]3[C@@H]4C[C@H](O[C@@H]5O[C@@H](C)[C@H](OC)[C@@H](OC)[C@H]5OC)C[C@H]4[C@@H](Br)[C@H](OC(C)=O)[C@H]3[C@@H]2CC(=O)O1 [Example F4b, (5R,6R)-5-Acetoxy-6-bromo-5,6-dihydro Spinosyn A] | < 50% | 60% |  | mortality at 400 µg/mL ([1]; RATE 400 (ppm), 6 days): 100%
13 | CCC1CCCC(OC2CCC(N(C)C)C(C)O2)C(C)C(=O)C2=CC3C4CC(OC5OC(C)C(OC)C(OC)C5OC)CC4[C@]4(C)O[C@@H]4C3C2CC(=O)O1 (stereo partly drawn) [Example F8b, (5R,6S)-Epoxy Spinosyn D] |  | 100% | 100% | % MORTALITY [5]: 90%; Percentage of LBF killed at 100 ppm [2]: 100%
14 | CCOC1C(OC2CC3CCC4C5CC(=O)OC(CC)CCCC(OC6CCC(N(C)C)C(C)O6)C(C)C(=O)C5=CC4C3C2)OC(C)C(OC)C1OC (stereo not drawn) [Example A7, 5,6-Dihydro-2'-O-ethyl Spinosyn H] |  |  | 100% | % MORTALITY [5]: 100%; Percentage of ASF killed at 100 ppm ([3]; 100 ppm in bovine serum): 100%
15 | (5R,6R)-5,6-dibromo-4''-keto Spinosyn A [Example F11a] |  |  |  | % MORTALITY ([4]; RATE 56 (unit not given)): 80%
